Laboratory results published in patent publication US6569842B2 (Board of Trustees of the University of Illinois, The, priority 2000, dated 2003).
Values after ≈ are worked out from the molar mass of the structure shown.

Assays:
U373 (glioma) = assay: Cytotoxicity against cultured U373 cells (SRB); type: cell-based, human; conditions: Method A, sample dissolved in DMSO; three days incubation
Protocol: (§1) Cytotoxicity of the crude extracts and purified compounds was determined in a number of cultured human cancer cell lines. Table 1 sets forth the various types of cancer cells evaluated using Method A. The cells were cultured in appropriate media and under standard conditions. To maintain logarithmic growth, the media were changed 24 hours prior to cytotoxic assays. On the day of the assay, the cells were harvested by trypsinization, counted, diluted in media, and added to 96-well plates containing test compounds dissolved in DMSO. The final DMSO concentration was 0.05%.
(§2) In each of Methods A-C, the plates were incubated for three days. Following the incubation period, the cells were fixed and stained with sulforhodamine B (SRB) dye. The bound dye was liberated with Tris base, and the OD515 (optical density at 515 nm) was measured on an ELISA reader. The growth of the betulinic acid-treated cells was determined by the OD515 values, and the growth was compared to the OD515 values of treated control cells of Methods A-C. Dose response studies were performed to generate ED50 values. As used herein, the term OD515 is defined as optical density at 515 nm, and the term ED50 is defined as the concentration of a compound required to reduce cell number by 50%.

[1] = tested on: KB (human oral epidermoid carcinoma); assay: Cytotoxicity against cultured KB cells (SRB); type: cell-based; conditions: Method A, sample dissolved in DMSO; three days incubation
Protocol: as §1, §2

ZR-75-1 (breast) = assay: Cytotoxicity against cultured ZR-75-1 cells (SRB); type: cell-based, human; conditions: Method A, sample dissolved in DMSO, three days incubation; for IC50: Homo sapiens, ZR-75-1, 72 h, read-out: ED50 ZR 75-1
Protocol: as §1, §2

LNCaP (prostate) = assay: Cytotoxicity against cultured LNCaP cells (SRB); type: cell-based, human; conditions: Method A, sample dissolved in DMSO; three days incubation
Protocol: as §1, §2

MEL-2 (melanoma) = assay: Cytotoxicity against cultured MEL-2 cells (SRB); type: cell-based, human; conditions: Method A, sample dissolved in DMSO, three days incubation; for IC50: Homo sapiens, MEL2, 72 h, read-out: ED50 MEL-2
Protocol: as §1, §2

BC-1 (breast) = assay: Cytotoxicity against cultured BC-1 cells (SRB); type: cell-based, human; conditions: Method A, sample dissolved in DMSO, three days incubation; for IC50: Homo sapiens, BC1, 72 h, read-out: ED50 BC-1
Protocol: as §1
as §2, with “The growth of the betulinic acid-treated cells was determined by the OD515 values, and the growth was compared to the OD515 values of treated control cells of Methods A-C.” left out

COL-2 (colon) = assay: Cytotoxicity against cultured COL-2 cells (SRB); type: cell-based, human; conditions: Method A, sample dissolved in DMSO, three days incubation; for IC50: Homo sapiens, Col2, 72 h, read-out: ED50 COL-2
Protocol: as §1, §2

LU-1 (lung) = assay: Cytotoxicity against cultured LU-1 cells (SRB); type: cell-based, human; conditions: Method A, sample dissolved in DMSO, three days incubation; for IC50: Homo sapiens, Lu1, 72 h, read-out: ED50 LU-1
Protocol: as §1, §2

HT-1080 (sarcoma) = assay: Cytotoxicity against cultured HT-1080 cells (SRB); type: cell-based, human; conditions: Method A, sample dissolved in DMSO, three days incubation; for IC50: Homo sapiens, HT-1080, 72 h, read-out: ED50 HT-1080
Protocol: as §1, §2

A431 (squamous cells) = assay: Cytotoxicity against cultured A431 cells (SRB); type: cell-based, human; conditions: Method A, sample dissolved in DMSO; three days incubation
Protocol: as §1, §2

a variety of tumors = conditions: Phase II trials in Japan; cited from earlier work

Molecule | ED50 U373 (U373 (glioma)) | ED50 KB [1] | IC50 (ZR-75-1 (breast)) | ED50 LNCaP (LNCaP (prostate)) | IC50 (MEL-2 (melanoma)) | IC50 (BC-1 (breast)) | IC50 (COL-2 (colon)) | IC50 (LU-1 (lung)) | IC50 (HT-1080 (sarcoma)) | ED50 A431 (A431 (squamous cells)) | response rate, lymphoma (a variety of tumors) | response rate, small cell lung (a variety of tumors) | ED50 ZR 75-1 (ZR-75-1 (breast)) | ED50 MEL-2 (MEL-2 (melanoma)) | ED50 LU-1 (LU-1 (lung)) | ED50 BC-1 (BC-1 (breast)) | ED50 HT-1080 (HT-1080 (sarcoma)) | ED50 COL-2 (COL-2 (colon))
CC(=O)O[C@H]1C(=O)[C@@]2(C)[C@H]([C@H](OC(=O)c3ccccc3)[C@]3(O)C[C@H](OC(=O)[C@H](O)[C@@H](NC(=O)c4ccccc4)c4ccccc4)C(C)=C1C3(C)C)[C@]1(OC(C)=O)CO[C@@H]1C[C@@H]2O [Taxol, paclitaxel] | 0.008 mg/L (≈ 0.00937 µM) | 0.02 mg/L (≈ 0.0234 µM) | 0.02 mg/L (≈ 0.0234 µM) | 0.02 mg/L (≈ 0.0234 µM) | 0.06 mg/L (≈ 0.0703 µM) | 0.02 mg/L (≈ 0.0234 µM) | 0.02 mg/L (≈ 0.0234 µM) |  |  |  |  |  |  |  |  |  |  | 
CC[C@]1(O)C[C@@H]2CN(CCc3c([nH]c4ccccc34)[C@@](C(=O)OC)(c3cc4c(cc3OC)N(C)[C@H]3[C@@](O)(C(=O)OC)[C@H](OC(C)=O)[C@]5(CC)C=CCN6CC[C@]43[C@@H]65)C2)C1 [Vinblastine] | 1.1 mg/L (≈ 1.36 µM) | 0.04 mg/L (≈ 0.0493 µM) | 0.3 mg/L (≈ 0.37 µM) | 0.1 mg/L (≈ 0.123 µM) | 0.01 mg/L (≈ 0.0123 µM) | 0.06 mg/L (≈ 0.074 µM) | 0.01 mg/L (≈ 0.0123 µM) | 0.02 mg/L (≈ 0.0247 µM) | 0.02 mg/L (≈ 0.0247 µM) | 0.05 mg/L (≈ 0.0617 µM) |  |  |  |  |  |  |  | 
CC[C@]1(O)C[C@H]2CN(CCc3c([nH]c4ccccc34)[C@@](C(=O)OC)(c3cc4c(cc3OC)N(C=O)[C@H]3[C@@](O)(C(=O)OC)[C@H](OC(C)=O)[C@]5(CC)C=CCN6CC[C@]43[C@@H]65)C2)C1 [Vincristine] | 0.06 mg/L (≈ 0.0727 µM) |  | 0.4 mg/L (≈ 0.485 µM) | 0.1 mg/L (≈ 0.121 µM) | 0.02 mg/L (≈ 0.0242 µM) | 0.01 mg/L (≈ 0.0121 µM) | 0.02 mg/L (≈ 0.0242 µM) | 0.05 mg/L (≈ 0.0606 µM) | 0.02 mg/L (≈ 0.0242 µM) | 0.01 mg/L (≈ 0.0121 µM) |  |  |  |  |  |  |  | 
CCc1c2c(nc3ccc(OC(=O)N4CCC(N5CCCCC5)CC4)cc13)-c1cc3c(c(=O)n1C2)COC(=O)[C@]3(O)CC [irinotican] |  |  |  |  |  |  |  |  |  |  | 0% | 50% |  |  |  |  |  | 
Mithramycin A | 0.04 mg/L | 0.09 mg/L |  | 0.05 mg/L |  |  |  |  |  | 0.09 mg/L |  |  | 0.2 mg/L | 1.2 mg/L | 0.2 mg/L | 0.3 mg/L | 1.5 mg/L | 0.06 mg/L
